Assay results published in PMC10712105 (Journal of Translational Medicine, 2023).
Values joined by “and” are separate entries in the source; they are usually repeats but may differ in a detail not shown here. Equal entries are not always repeated. Structures can show the parent of a compound that is named as a salt. Where two headings read alike, the source gives them in different places.

Tests used:
HSA = settings: cited from earlier work
[1] = design: method as in PMID 8289200; settings: in the presence of HSA; cited from earlier work
[2] = system: SK-LMS-1 xenograft tumors; assay type: in vivo, SCID mice; design: Estimate of tumor volume difference vs SPESN38-8 / Estimate of tumor volume difference vs Vehicle: unit not given here; settings: for Tumor volume, Mean / Tumor volume, Median: in mm³ (unit assumed); for Tumor volume change from Day 0, Mean / Tumor volume change from Day 0, Median: volume minus day 0 volume
From the text: SK-LMS-1 cell line (HTB-88) was purchased from ATCC. […] Equal number (12) of female and male mice were used in this experiment. […] The intended schedule for drug or vehicle treatment was weekly for 3 doses.
A mixed linear regression model was made with tumor volume as the outcome on day 2, 6, and 9. The model tested for group differences adjusted for time, day 0 volume, and sex. There was a within animal correlation modeled using a random intercept. […] The black color columns are within group at between days, the red columns are between group at each day.

SK-LMS-1 = SK-LMS-1 cell line; cited from earlier work
[3] = Water solubility and solution stability; assay type: physicochemical
From the text: Following the formation of SPESN38 complexes, the solution was lyophilized to yield yellowish powder.

[4] = Membrane dialysis SN38 release kinetics; assay type: physicochemical; settings: in 7 h; 0.1 M NaHCO3 buffer, pH 8.6
cancer cells = system: cancer cells; design: method as in PMID 11489791, PMID 1651156; settings: cited from earlier work
[5] = design: method as in earlier work; settings: irinotecan at 200 mg/kg, mice, cited from earlier work
[6] = Irinotecan IV dose tolerability; assay type: in vivo, mouse; settings: female, mouse, in vivo; SCID mice, via IV
Protocol: (§1) After growing in Eagle's Minimum Essential, HCT-116 cells were harvested by trypsinization and washed twice with PBS. HCT-116 cells (2 × 10^6 per injection) were suspended in 200 µL of a 1:1 solution of ice-cold PBS and Matrigel (Corning Incorporated, Corning, NY) solution. […] After the tumors grew to 800–1200 mm^3, they were isolated, and approximately 50 mg of non-necrotic tumor masses were subcutaneously implanted into the flank area of individual female SCID mice. […] Other doses at 75 and 50 mg/kg were tried on healthy CD-1 mice. […] Tumor volume (TV) and BW were measured three times per week or daily depending on the condition of the mouse. TV was calculated using the formula: v = 0.5 (L x W^2). Progression at the endpoint was a tumor size with diameter ≥ 20 mm or a moribund condition.

SCID mice and CD-1 mice = assay: Irinotecan IV dose tolerability; assay type: in vivo, mouse
Protocol: as §1

[7] = cited from earlier work
[8] = system: HCT-116 CRC xenograft tumors; assay: HCT-116 model efficacy study; settings: for tumor growth inhibition (TGI) on Day 10: IV (irinotecan 50 mg/kg, SPESN38-5 55 mg/kg), vs control group, female SCID mice
Protocol: as §1

[9] = DOX 5 mg/kg qwk x 2, SPESN38-8 IV 33 mg/kg qwk x 3
[10] = Day 2, mixed linear regression model, Tukey-Kramer pairwise test
[11] = Day 6, mixed linear regression model, Tukey-Kramer pairwise test
[12] = IV, DOX 5 mg/kg, SPESN38-8 33 mg/kg, relative to control group
[13] = mixed linear regression model, Tukey-Kramer pairwise test

For CC[C@@]1(O)C(=O)OCc2c1cc1n(c2=O)Cc2cc3ccccc3nc2-1 [CPT, Camptothecin], the “fold higher HSA affinity for the C form over the L form” value (HSA) is given as 157 fold and the “L form at the equilibrium” value [1] is given as < 0.5%.

In the case of COc1cccc2c1C(=O)c1c(O)c3c(c(O)c1C2=O)C[C@@](O)(C(=O)CO)C[C@@H]3O[C@H]1C[C@H](N)[C@H](O)[C@H](C)O1 [DOX, doxorubicin], the “% Tumor volume change at Day 9” value [2, 9] is reported as 142% and 142.4%, the “Mean Tumor volume at Day 9” value [2, 9] is reported as 843.5 mm^3 and the Tumor weight on ending day, Mean ([2]; DOX Day 9, SPESN38-8 Day 21) is reported as 0.73 g. The Tumor weight on ending day, Median ([2]; DOX Day 9, SPESN38-8 Day 21) was 0.71 g, the “Initial mean Tumor volume” value ([2]; Day 0, DOX 5 mg/kg qwk x 2, SPESN38-8 IV 33 mg/kg qwk x 3) was 334.2 mm^3 and the “Tumor volume, Mean” value ([2]; Day 0) was 334.20. For the same compound, the “Tumor volume, Median” value ([2]; Day 0) was 343.40, the “Tumor volume, Mean” value ([2]; Day 2) was 347.68 and the “Tumor volume, Median” value ([2]; Day 2) was 355.78. For the same compound, the “Estimate of tumor volume difference vs SPESN38-8” value [2, 10] was 42.5383, the “Estimate of tumor volume difference vs Vehicle” value [2, 10] was -178.73 and the “Tumor volume change from Day 0, Mean” value ([2]; Day 2) was 13.48. For the same compound, the “Tumor volume change from Day 0, Median” value ([2]; Day 2) was 14.71, the “Tumor volume, Mean” value ([2]; Day 6) was 495.42 and the “Tumor volume, Median” value ([2]; Day 6) was 464.84. For the same compound, the “Estimate of tumor volume difference vs SPESN38-8” value [2, 11] was 132.53, the “Estimate of tumor volume difference vs Vehicle” value [2, 11] was -258.70 and the “Tumor volume change from Day 0, Mean” value ([2]; Day 6) was 161.22. For the same compound, the “Tumor volume change from Day 0, Median” value ([2]; Day 6) was 138.34, the “Tumor volume, Mean” value ([2]; Day 9) was 843.52 and the “Tumor volume, Median” value ([2]; Day 9) was 810.34. The “Estimate of tumor volume difference vs SPESN38-8” value ([2]; Day 9, mixed linear regression model, Tukey-Kramer pairwise test) was 538.49, the “Tumor volume change from Day 0, Mean” value ([2]; Day 9) was 509.32 and the “Tumor volume change from Day 0, Median” value ([2]; Day 9) was 472.65. The “TGI on Day 6” value [2, 12] was 27% and 26.9%, the “TGI on Day 9” value [2, 12] was 25% and 25.3% and the “Estimate of tumor volume difference within group, Day 2 vs Day 6” value [2, 13] was -147.74. The “Estimate of tumor volume difference within group, Day 2 vs Day 9” value [2, 13] was -495.84, the “Estimate of tumor volume difference within group, Day 6 vs Day 9” value [2, 13] was -348.11 and the “BW loss after 2 doses” value ([2]; mouse, in vivo) was > 20%. The IC50 (SK-LMS-1) was 490 nM.

In the case of CCc1c2c(nc3ccc(O)cc13)-c1cc3c(c(=O)n1C2)COC(=O)[C@]3(O)CC [SN38 salt], the solution stability ([3]; under the same conditions as SPESN38 complexes) is reported as “neither SN38 salt nor SN38 salt-HSA mixture is stable” and the “SN38 out of the membrane tubing” value [4] is reported as > 90%.

In the case of CCc1c2c(nc3ccc(O)cc13)-c1cc3c(c(=O)n1C2)COC(=O)[C@]3(O)CC [SN38, 7-ethyl-10-hydroxy camptothecin], the water solubility [3] is given as “very low solubility in water” and the “times more cytotoxic than irinotecan” value (cancer cells) is given as 100–1000 times.

For CCc1c2c(nc3ccc(OC(=O)N4CCC(N5CCCCC5)CC4)cc13)-c1cc3c(c(=O)n1C2)COC(=O)[C@]3(O)CC [irinotecan], the “AUC0-∞” value ([5]; moiety Free SN38) is given as 9,940 ng x h/mL, the Cmax ([5]; moiety Free SN38) is given as 1,125 ng/mL and the Tmax ([5]; moiety Free SN38) is given as 31.8 min. The “AUC0-∞” value ([5]; moiety Irinotecan) was 16,348 ng x h/mL, the Cmax ([5]; moiety Irinotecan) was 6,571 ng/mL and the Tmax ([5]; moiety Irinotecan) was 17.4 min. The “AUC0-∞” value ([5]; moiety SN38-G) was 15,493 ng x h/mL, the Cmax ([5]; moiety SN38-G) was 2,620 ng/mL and the Tmax ([5]; moiety SN38-G) was 36 min. For the same compound, the MTD [6] was 50 mg/kg, the Tolerability (SCID mice and CD-1 mice; 50 mg/kg IV, 2 healthy CD-1 mice) was “safe” and the Mortality (SCID mice and CD-1 mice; 75 mg/kg IV, healthy CD-1 mice) was “died instantly”. For the same compound, the Mortality (SCID mice and CD-1 mice; 100 mg/kg IV, 2 SCID mice bearing HCT-116) was “both died immediately”, the “fraction of irinotecan transformed in vivo into SN38” value ([7]; human setting) was 2–8% and the “drug excreted as intact irinotecan” value ([7]; in humans) was 55%. For the same compound, the “tumor growth inhibition (TGI) on Day 10” value [8] was 82%, the “tumor growth inhibition (TGI) on Day 10” value ([8]; listed as Irinotecan) was 82.3% and the “Tumor weight Difference vs SPESN38-5 PO on Day 10” value ([8]; IV groups on Day 21) was -0.6587. The “Tumor weight Difference vs Vehicle on Day 10” value ([8]; IV groups on Day 21) was -0.9605 and the “Mean % BW change at ending day” value ([8]; normalized BW, ending Day 21, IV qwk x 3 (irinotecan 50 mg/kg, SPESN38-5 55 mg/kg)) was 90.5%.
